We go through two substances from patent publication US20110100079A1, “METHOD FOR IMPARTING STRESS TOLERANCE TO PLANT” (priority 2007, published 2011).

Holding throughout (format): in vivo
Test [1] deals with “Momotaro” tomato. As to the kind of experiment: Example 6 salt stress test (tomato), soil culture. To be noted: 23° C., 100 ppm, 2 weeks; for Fresh weight, relative value (untreated plot = 100), Test 1 / Fresh weight, relative value (untreated plot = 100), Test 4 / Fresh weight, relative value (untreated plot = 100), Test 2 / Fresh weight, relative value (untreated plot = 100), Test 3: soil culture; for Fresh weight, relative value (untreated plot = 100), Test 1: EC 1.3 mS/cm; for Fresh weight, relative value (untreated plot = 100), Test 4 / Fresh weight, relative value (untreated plot = 100), Test 2: EC 2 mS/cm; for Fresh weight, relative value (untreated plot = 100), Test 4: pF 1.7, five-leaf stage; for Fresh weight, relative value (untreated plot = 100), Test 3: EC 3 mS/cm. As to the method: (1) A. soil culture (a) Comparative example conditions (stress-free optimum growth conditions) Cultivation temperature: 23° C., EC: 1.0 mS/cm (cultivation with Kureha gardening soil), pF value: 1.7 (capillaries in a saturated state) (b) Example conditions (salt stress conditions) Cultivation temperature: 23° C., EC: 1.3, 2.0, 3.0 mS/cm (cultivation with Kureha gardening soil), pF value: 1.7 (capillaries in a saturated state)
(§1) (a) Comparative example conditions (stress-free optimum growth conditions) Cultivation temperature: 23° C., EC: 1.3 mS/cm (Otsuka ½A formulation) (b) Example conditions (salt stress conditions) Cultivation temperature: 23° C., EC: 2.7, 3.9, 4.8 mS/cm (cultivation with Kureha gardening soil) (2) Illuminance: 5000 Lux (fluorescent light), light/dark cycle: 16 hours/8 hours (3) Employed soil: Kureha gardening soil manufactured by Kureha Corporation (fertilizer components: N:P:K=0.4:1.9:0.6 g/kg soil) (4) Employed solution culture medium: Otsuka ½A formulation: a mixed solution of Otsuka House No. 1 (N:P:K=10:8:27) 7.5 g/10 L and Otsuka House No. 2 (N:P:K:Ca=10:0:0:23) 5 g/10 L, total nitrogen: 130 ppm, phosphoric acid: 60 ppm, potassium: 203 ppm) (5) Cultivation period: 2 weeks (6) Plant preparation: A 50-cell tray was filled with Kureha gardening soil manufactured by Kureha Corporation (fertilizer components: N:P:K=0.4:1.9:0.6 g/kg soil), and seeds of a “Momotaro” tomato or tubers of a “Danshaku” potato were sowed, thinly covered with Kureha gardening soil, and sufficiently watered to allow the seeds or the tubers to sprout. When the leaves in the 2-leaf stage or the 5-leaf stage fully unfolded, the soil on the tomato roots or the potato roots was carefully washed away with running water, and a test was performed. (7) Test chemicals: POE (20) sorbitan monolauric acid ester: Reodol TW-L120 (Kao Corporation) POE (20) sorbitan monopalmitic acid ester: Reodol TW-P120 (Kao Corporation) POE (20) sorbitan monostearic acid ester: Reodol TW-S120 (Kao Corporation) POE (20) sorbitan monooleic acid ester: Reodol TW-O120 (Kao Corporation) Sorbitan monooleic acid ester: Emasol 0-10(F) (Kao Corporation) POE (6) sorbitan monooleic acid ester: Reodol TW-O106 (Kao Corporation) Alkyl (number of carbon atoms: 10) polyglucoside: AG-10LK (Kao Corporation) Alkyl (number of carbon atoms: 12 to 14) polyglucoside: AG-124 (Kao Corporation) Sucrose fatty acid ester (number of carbon atoms: C18, HLB: 5): S-570 (Mitsubishi-Kagaku Foods Corporation) Sucrose fatty acid ester (number of carbon atoms: C18, HLB: 9): S-970 (Mitsubishi-Kagaku Foods Corporation) Sucrose fatty acid ester (number of carbon atoms: C18, HLB: 11): S-1170 (Mitsubishi-Kagaku Foods Corporation) Sucrose fatty acid ester (number of carbon atoms: C18, HLB: 15): 5-1570 (Mitsubishi-Kagaku Foods Corporation) Sucrose fatty acid ester (number of carbon atoms: C16, HLB: 15): P-1570 (Mitsubishi-Kagaku Foods Corporation) Sucrose fatty acid ester (number of carbon atoms: C18:1, HLB: 15): O-1570 (Mitsubishi-Kagaku Foods Corporation) (8) Amount of treatment solution applied: 10 ml/specimen for leaf spraying, 250 ml/specimen for hydroponic culture (treatment of underground portion) (9) 50 ml/specimen for soil culture (treatment of underground portion)
The environmental conditions in a climatic chamber were controlled so as to have a temperature of 23° C., an illuminance by a fluorescent light of 5000 Lux, and a daily light-dark cycle of a 16-hour light period and an 8-hour dark period. Tomatoes as prepared above were transplanted in size-3 (9 cm) pots. During the test period, the EC value was controlled by adding a suitable amount of a 10% NaCl solution once a day so as to attain a specific salt stress value. A treatment solution containing a compound of Table 1 in a specific concentration (the remainder was water) was prepared and sprayed onto the leaves or applied to the underground portions. […]

Test [2] relates to “Momotaro” tomato. As to the kind of experiment: Example 6 salt stress test (tomato), hydroponic culture. To be noted: 23° C., 100 ppm, 2 weeks; for Fresh weight, relative value (untreated plot = 100), Test 5 / Fresh weight, relative value (untreated plot = 100), Test 8 / Fresh weight, relative value (untreated plot = 100), Test 6 / Fresh weight, relative value (untreated plot = 100), Test 7: hydroponic culture; for Fresh weight, relative value (untreated plot = 100), Test 5: EC 2.7 mS/cm; for Fresh weight, relative value (untreated plot = 100), Test 5 / Fresh weight, relative value (untreated plot = 100), Test 6 / Fresh weight, relative value (untreated plot = 100), Test 7 / Fresh weight, relative value (untreated plot = 100), Comparison 2: two-leaf stage; for Fresh weight, relative value (untreated plot = 100), Test 8 / Fresh weight, relative value (untreated plot = 100), Test 6: EC 3.9 mS/cm; for Fresh weight, relative value (untreated plot = 100), Test 8: five-leaf stage; for Fresh weight, relative value (untreated plot = 100), Test 7: EC 4.8 mS/cm; for Fresh weight, relative value (untreated plot = 100), Comparison 2: stress-free: hydroponic culture, EC 1.3 mS/cm. The protocol: as §1
The environmental conditions in a climatic chamber were controlled so as to have a temperature of 23° C., an illuminance by a fluorescent light of 5000 Lux, and a daily light-dark cycle of a 16-hour light period and an 8-hour dark period. Tomatoes as prepared above were planted in 250 ml polyethylene bottles each filled with a solution culture medium having a different EC value. Different EC values were achieved by taking a ½ Otsuka A formulation having an EC value of 1.3 as a standard and suitably increasing the fertilizer concentration through proportional counting. A treatment solution containing a compound of Table 1 in a specific concentration (the remainder was water) was prepared and sprayed onto the leaves or applied to the underground portion. In each test plot, 10 specimens were prepared for replication, and the average of the fresh weight of each specimen 2 weeks after the beginning of the test was calculated and expressed as a relative value where “100” indicates a result identical to that of the untreated plot of a given EC condition. […]

Test [3] relates to potato. Kind of test: Example 9 drying stress test (potato), soil culture. As to conditions: 23° C., 100 ppm, 2 weeks; for Fresh weight, relative value (untreated plot = 100), Test 1 / Fresh weight, relative value (untreated plot = 100), Test 4 / Fresh weight, relative value (untreated plot = 100), Test 2 / Fresh weight, relative value (untreated plot = 100), Test 3: potato soil culture; for Fresh weight, relative value (untreated plot = 100), Test 1: EC 1, pF 2.8, two-leaf stage; for Fresh weight, relative value (untreated plot = 100), Test 4: EC 1, pF 3.5, five-leaf stage; for Fresh weight, relative value (untreated plot = 100), Test 2: EC 1, pF 3.5, two-leaf stage; for Fresh weight, relative value (untreated plot = 100), Test 3: EC 1, pF 4.1, two-leaf stage; for Fresh weight, relative value (untreated plot = 100), Comparison 1: stress-free: potato soil culture, EC 1, pF 1.7, two-leaf stage. The protocol:
The environmental conditions in a climatic chamber were controlled so as to have a temperature of 23° C., an illuminance by a fluorescent light of 5000 Lux, and a daily light-dark cycle of a 16-hour light period and an 8-hour dark period. Potatoes as prepared above were transplanted in size-5 (15 cm) pots. During the test period, the pF value was controlled by adding a suitable amount of tap water once a day so as to attain a specific drying stress value. A treatment solution containing a compound of Table 5 in a specific concentration (the remainder was water) was prepared and sprayed onto the leaves or applied to the underground portions. […] A comparative example was constructed to reflect the drying stress-free optimum cultivation conditions to investigate the plant energizing ability. […] Moreover, when the products of the present invention and the comparative products were compared, the stress tolerance imparting ability of the products of the present invention was higher in respective drying stress conditions.

Setting [4] is: pF 1.7, two-leaf stage, underground portion.

Turning to “POE (20) sorbitan monooleic acid ester [Product of present invention 1]”, in test [1] (setting [4]), the “Fresh weight, relative value (untreated plot = 100), Test 1” value (“Fresh weight, relative value … Test 1” for short) worked out at 142; the “Fresh weight, relative value (untreated plot = 100), Test 2” value (“Fresh weight, relative value … Test 2” below) came out at 185; the “Fresh weight, relative value (untreated plot = 100), Test 3” value (from here on “Fresh weight, relative value … Test 3”) is given as 140. Also, in test [1] (underground portion), the “Fresh weight, relative value (untreated plot = 100), Test 4” value (shortened to “Fresh weight, relative value … Test 4”) is 156. Moreover, in test [1] (stress-free: soil culture, EC 1 mS/cm, pF 1.7, two-leaf stage, underground portion), the “Fresh weight, relative value (untreated plot = 100), Comparison 1” value (shortened to “Fresh weight, relative value … Comparison 1”) was found to be 103. In addition, in test [2] (underground portion), the “Fresh weight, relative value (untreated plot = 100), Test 5” value is recorded as 145; the “Fresh weight, relative value (untreated plot = 100), Test 8” value came to 160; the “Fresh weight, relative value (untreated plot = 100), Test 6” value was 190; the “Fresh weight, relative value (untreated plot = 100), Test 7” value worked out at 145. The “Fresh weight, relative value (untreated plot = 100), Comparison 2” value in test [2] (underground portion) is recorded as 104. Also, in test [3] (underground portion), the “Fresh weight, relative value … Test 1” value came out at 133; the “Fresh weight, relative value … Test 4” value was determined as 156; the “Fresh weight, relative value … Test 2” value is recorded as 185; the “Fresh weight, relative value … Test 3” value came out at 140. The “Fresh weight, relative value … Comparison 1” value in test [3] (underground portion) was 102.
For the substance “Sucrose fatty acid ester (C18, HLB = 15) [Product of present invention 20]”, in test [1] (pF 1.7, two-leaf stage, leaf), the “Fresh weight, relative value … Test 1” value is 120; the “Fresh weight, relative value … Test 2” value came out at 134; the “Fresh weight, relative value … Test 3” value stood at 119. Moreover, the “Fresh weight, relative value … Test 4” value in test [1] (leaf) came to 129. In test [2] (leaf), the “Fresh weight, relative value (untreated plot = 100), Test 5” value is 121; the “Fresh weight, relative value (untreated plot = 100), Test 8” value is 133; the “Fresh weight, relative value (untreated plot = 100), Test 6” value amounted to 138; the “Fresh weight, relative value (untreated plot = 100), Test 7” value is 125. The “Fresh weight, relative value (untreated plot = 100), Comparison 2” value in test [2] (leaf) is listed as 103. For the same substance, in test [3] (leaf), the “Fresh weight, relative value … Test 1” value is given as 118; the “Fresh weight, relative value … Test 4” value is given as 128; the “Fresh weight, relative value … Test 2” value turned out to be 135; the “Fresh weight, relative value … Test 3” value was determined as 118. Moreover, in test [3] (leaf), the “Fresh weight, relative value … Comparison 1” value amounted to 102.
